Results published in patent publication US20220323427A1, “SOMATOSTATIN RECEPTOR TYPE 5 AGONIST FOR THE TREATMENT OF HYPERINSULINISM” (Crinetics Pharmaceuticals, Inc., priority 2021, published 2022).

Experiments:
Assay type in all cases: in vivo, human
[1] = SAD study pharmacokinetics
Source text: This Phase 1, first-in-human, double-blind, randomized, placebo-controlled study will evaluate the safety of Compound 1 in healthy volunteers as well as the relationship between exposure and key pharmacodynamic (PD) parameters. The study will initiate with a single ascending dose (SAD) phase followed by a multiple ascending dose (MAD) phase. Food effect will also be evaluated in subset of subjects in the SAD phase. Results will be used to inform endpoints and other parameters in later studies in patients with congenital HI.
SAD 1a/Part 1a: ascending single dose, randomized, placebo-controlled, double-blind; up to 10 cohorts, n=8/cohort; subjects in SAD 1a will undergo an IVGTT. Doses will escalate from 0.5 mg to 120 mg.
SAD 1c/Part 1c: single dose, 1-arm crossover food effect investigation; 1 cohort, n=6; SAD 1c will not be placebo-controlled or blinded. The dose is 120 mg.
In SAD 1c, subjects will participate in a 1-arm crossover investigation to evaluate the effect of a high-fat meal on Compound 1 absorption.

[2] = test system: incretin-induced insulin secretion; experiment: Mixed meal tolerance test (MMTT), MAD; conditions: Day 6
Protocol: An MMTT will be conducted during the MAD study to assess the impact of Compound 1 on incretin-induced insulin secretion. This will be conducted at baseline (before study drug dosing) in the MAD and at Day 6 at which Compound 1 is predicted to be at steady state.
The purpose of the MMTT is to evaluate the effect of Compound 1 on plasma insulin in response to multiple fuel sources (protein, fat) and to evaluate the impact on incretin-induced insulin secretion. Subjects are to fast at least 10 hours overnight until ingestion of the mixed meal (which is to occur approximately 4 hours after study drug dosing), and then restrict further food intake until the end of the MMTT.
Start the MMTT (i.e., drink the mixed meal) on Day −1 and Day 6 at 4 hours (±30 minutes) post-study drug dosing (i.e., Time 240 minutes) or at nominal time. The total duration of the MMTT will be approximately 3.5 hours from when the first pre-drink blood sample is collected until the last MMTT blood sample is collected. The subject is to be in the supine position during the MMTT, except while consuming the mixed meal. The procedure will be as follows:
Collect pre-drink fasting blood samples for measurement of PG, insulin, C-peptide, glucagon, GIP, and GLP-1 at the timepoints specified in (SOA).
At 4 hours after study drug dosing/Time 240 minutes (or nominal time), the subject is to drink 400 mL (2×200-mL bottles) Resource® Energy (Nestlé Health Science) drink (mixed meal) within ≤10 minutes.
Collect post-drink blood samples for measurement of PG, insulin, C-peptide, glucagon, and GLP-1 at the timepoints specified in (SOA). The subject is to not eat or drink (except for water) until the last MMTT blood sample is collected.

[3] = test system: sulfonylurea-induced hyperinsulinism; experiment: Sulfonylurea (glibenclamide) challenge and euglycemic clamp, MAD
Protocol: (§1) MAD/Part 2: multiple ascending dose, randomized, placebo-controlled, double-blind; up to 5 cohorts, n=9/cohort; subjects in MAD will receive Compound 1 or the placebo. Subjects will undergo a mixed meal tolerance test (MMTT) and an SU challenge and euglycemic clamp procedure. The doses will not exceed the doses in the SAD. Doses will escalate from 30 mg to 120 mg.
In SAD 1b and the MAD, subjects will undergo an SU challenge in the setting of a euglycemic clamp procedure. Sulfonylurea drugs act to close KATP channel of the pancreatic β-cell, stimulating endogenous insulin secretion. Given that the majority (50%) of patients with congenital HI harbor a mutation in the KATP channel, the SU challenge models this genetic form of HI in healthy volunteers. Intravenous glucose will be used during the euglycemic clamp to maintain glucose within a target range. In the presence of an SU, the amount of intravenous (IV) glucose required to maintain a target glucose will increase, similar to patients with congenital HI who require supplemental glucose. The SU challenge cohorts in SAD 1b will assess the ability of a single dose of Compound 1 to reduce or prevent SU-induced glucose lowering as measured by reduced IV glucose infusion (reduced glucose “support”). IV glucose requirements will be assessed as a glucose infusion rate, or GIR (mg dextrose/kg body weight/minute). In the MAD, the durability of the Compound 1 effect will be measured by assessing the GIR required to maintain euglycemia during the SU challenge after 10 days of Compound 1 dosing compared to the baseline SU challenge in the absence (predose) of Compound 1.
Glibenclamide will be used for SU-induced hypoglycemia. Based on the available dose-response data in healthy volunteers, 5 mg of glibenclamide will be orally administered to healthy volunteers in selected single- and multi-dose cohorts. The risk of hypoglycemia due to overdose is negligible because continuous glucose monitoring by a clamp device will be performed for each subject and IV infusion of glucose will be provided to maintain each subject's baseline glucose levels.
The euglycemic glucose clamp will be performed by means of a glucose clamp device (ClampArt®; Profil Institut für Stoffwechselforschung, Neuss, Germany). The subject will be connected to the clamp device that will monitor the subject's PG continuously. The device will calculate aggregated PG values every minute. Based on these values, GIR will be calculated every minute using the algorithm implemented into the device and glucose will be administered automatically by the device to keep the PG concentration of the subject constant at a pre-determined target level. Approximately 2 mL of blood per hour will be sampled for glucose monitoring by ClampArt®/the clamp device. […]

[4] = MAD study safety and tolerability; conditions: QD 30, 60 and 120 mg/day for 10 days
Protocol: as §1
To evaluate the safety and tolerability of single and multiple doses of Compound 1.

[5] = test system: glucose stimulated insulin secretion; experiment: Intravenous glucose tolerance test (IVGTT), SAD
Protocol: The results from the IVGTT will help inform selection of the single dose that will be used in SAD 1b and SAD 1c and also to inform the doses used in the MAD.
A summary of the procedure is as follows: Collect pre-IV bolus blood samples for measurement of PG, insulin, and C-peptide. At 1 hour after study drug dosing/Time 60 (±30 minutes) or nominal time, administer an IV bolus of glucose at 300 mg/kg in 20% solution, within 60 seconds (use the most recent body weight measurement for glucose dose). Collect post-IV bolus blood samples for measurement of PG, insulin, and C-peptide.

[6] = after 10 days of 30, 60 or 120 mg QD
[7] = single oral dose prior to IV glucose

Food effect on exposure ([1]; 120 mg within 30 minutes of a high fat breakfast): significant reduction in exposure
Tmax ([1]; human, in vivo, single oral dose, at efficacious doses): 1 to 2 h
half-life ([1]; human, in vivo, single oral dose, healthy volunteers): ~40 h
SMILES: C[C@H](NC(=O)c1cnc(C#N)c(-c2cc(F)cc(F)c2)c1N1CC[C@H](N)C1)C(F)(F)F [Compound 1, 4-[(3S)-3-aminopyrrolidin-1-yl]-6-cyano-5-(3,5-difluorophenyl)-N-[(2S)-1,1,1-trifluoropropan-2-yl]pyridine-3-carboxamide]
Oral bioavailability and dose proportionality ([1]; single oral doses 0.5 to 120 mg): oral bioavailability with dose-proportional exposure
Increase in plasma glucose AUC in MMTT ([2]; 30 mg QD): ~30%
Increase in plasma glucose AUC in MMTT ([2]; 60 mg QD): ~30%
Increase in plasma glucose AUC in MMTT ([2]; 120 mg QD): ~60%
Insulin and C-peptide in MMTT ([2]; 30-120 mg QD): more sustained suppression of insulin and C-peptide with increasing dose
Plasma glucose during sulfonylurea challenge ([3]; 120 mg cohort, Day 10): mild elevation of plasma glucose
Effect on sulfonylurea-induced hyperinsulinism [3, 6]: reversed sulfonylurea-induced hyperinsulinism
Need for IV glucose support (glucose infusion rate) [3, 6]: eliminating the need for IV glucose support
Insulin and C-peptide levels during sulfonylurea challenge ([3]; day 10, all cohorts): suppressed
Safety and tolerability [4]: generally safe and well tolerated
% reduction in insulin AUC ([5]; 27 mg dose): about 22%
% reduction in insulin AUC ([5]; 60 mg dose): about 40%
% reduction in insulin AUC ([5]; 120 mg dose): about 47%
Insulin secretion in IVGTT [5, 7]: dose-dependently suppressed insulin secretion
Plasma glucose in IVGTT [5, 7]: rapid and sustained increase in plasma glucose levels
